ChEMBL document CHEMBL1201861, “Genomics of Drug Sensitity in Cancer screening data, Wellcome Trust Sanger Institute”

Key:
Test in all cases: cells
[1] = system: NCI-H82; format: functional, cell-based; settings: Homo sapiens;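 further: growth inhibition of NCI-H82 cells, measured with a cell viability readout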
Description: SANGER: Inhibition of human NCI-H82 cell growth in a cell viability assay.

[2] = system: SK-N-DZ; format: functional, cell-based, Homo sapiens; settings: Homo sapiens, SK-N-DZ;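 further: growth inhibition of the cancer cell line, read out through a viability assay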
Description: SANGER: Inhibition of human SK-N-DZ cell growth in a cell viability assay.

[3] = system: NB5; format: functional, cell-based, Homo sapiens; settings: Homo sapiens, NB5;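 further: growth inhibition of NB5 cells, read out as cell viability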
Description: SANGER: Inhibition of human NB5 cell growth in a cell viability assay.

[4] = system: EC-GI-10; format: functional, cell-based, Homo sapiens; settings: Homo sapiens, EC-GI-10
Description: SANGER: Inhibition of human EC-GI-10 cell growth in a cell viability assay.

[5] = system: A498; format: functional, cell-based, Homo sapiens; settings: Homo sapiens, A498;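 further: growth inhibition of human A498 cells, read out with a cell viability assay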
Description: SANGER: Inhibition of human A498 cell growth in a cell viability assay.

[6] = system: CCRF-CEM; format: functional, cell-based; settings: Homo sapiens;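 further: inhibition of CCRF-CEM cell growth, measured by a cell viability assay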
Description: SANGER: Inhibition of human CCRF-CEM cell growth in a cell viability assay.

[7] = system: EW-18; format: functional, cell-based; settings: Homo sapiens;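 further: growth inhibition of EW-18 cells, read out by a cell viability assay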
Description: SANGER: Inhibition of human EW-18 cell growth in a cell viability assay.

[8] = system: DSH1; format: functional, cell-based, Homo sapiens; settings: Homo sapiens, DSH1;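 further: growth inhibition of human DSH1 cells, measured with a cell viability readout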
Description: SANGER: Inhibition of human DSH1 cell growth in a cell viability assay.

[9] = system: TE-1; format: functional, cell-based, Homo sapiens; settings: Homo sapiens, TE-1;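 further: growth inhibition of the human TE-1 cell line, read out with a cell viability assay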
Description: SANGER: Inhibition of human TE-1 cell growth in a cell viability assay.

[10] = system: MZ7-mel; format: functional, cell-based, Homo sapiens; settings: Homo sapiens, MZ7-mel;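 further: growth inhibition of human MZ7-mel cells, measured by a cell viability assay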
[11] = system: GI-ME-N; format: functional, cell-based, Homo sapiens; settings: Homo sapiens, GI-ME-N;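 further: growth inhibition of human GI-ME-N cells, read out with a cell viability assay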
Description: SANGER: Inhibition of human GI-ME-N cell growth in a cell viability assay.

[12] = system: MOLT-4; format: functional, cell-based; settings: Homo sapiens;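 further: growth inhibition of MOLT-4 cells, determined with a cell viability readout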
Description: SANGER: Inhibition of human MOLT-4 cell growth in a cell viability assay.

[13] = system: NMC-G1; format: functional, cell-based, Homo sapiens; settings: Homo sapiens, NMC-G1;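 further: growth inhibition of the NMC-G1 cell line, measured with a cell viability read-out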
Description: SANGER: Inhibition of human NMC-G1 cell growth in a cell viability assay.

[14] = system: HEL; format: functional, cell-based, Homo sapiens; settings: Homo sapiens, HEL;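 further: growth inhibition of HEL cells, read out with a cell viability assay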
Description: SANGER: Inhibition of human HEL cell growth in a cell viability assay.

[15] = system: GOTO; format: functional, cell-based, Homo sapiens; settings: Homo sapiens, GOTO;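 further: growth inhibition of GOTO cells, read out by a cell viability assay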
Description: SANGER: Inhibition of human GOTO cell growth in a cell viability assay.

[16] = system: MFM-223; format: functional, cell-based, Homo sapiens; settings: Homo sapiens, MFM-223
Description: SANGER: Inhibition of human MFM-223 cell growth in a cell viability assay.

[17] = system: SK-MEL-2; format: functional, cell-based, Homo sapiens; settings: Homo sapiens, SK-MEL-2;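 further: growth inhibition of human SK-MEL-2 cells measured with a cell viability assay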
Description: SANGER: Inhibition of human SK-MEL-2 cell growth in a cell viability assay.

[18] = system: MHH-PREB-1; format: functional, cell-based; settings: Homo sapiens;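 further: cell viability assay measuring inhibition of proliferation of human MHH-PREB-1 cells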
Description: SANGER: Inhibition of human MHH-PREB-1 cell growth in a cell viability assay.

[19] = system: TE-12; format: functional, cell-based; settings: Homo sapiens;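 further: growth inhibition of TE-12 cells, read out by a cell viability assay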
Description: SANGER: Inhibition of human TE-12 cell growth in a cell viability assay.

[20] = system: NCI-H1648; format: functional, cell-based, Homo sapiens; settings: Homo sapiens, NCI-H1648;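 further: cell viability assay measuring inhibition of NCI-H1648 cell growth, from the Sanger screening data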
Description: SANGER: Inhibition of human NCI-H1648 cell growth in a cell viability assay.

[21] = system: 697; format: functional, cell-based; settings: Homo sapiens
Description: SANGER: Inhibition of human 697 cell growth in a cell viability assay.

[22] = system: HAL-01; format: functional, cell-based; settings: Homo sapiens;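 further: growth inhibition of human HAL-01 cells, read out with a cell viability assay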
Description: SANGER: Inhibition of human HAL-01 cell growth in a cell viability assay.

[23] = system: COLO-800; format: functional, cell-based, Homo sapiens; settings: Homo sapiens, COLO-800;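 further: growth inhibition of COLO-800 cells, read out with a cell viability assay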
Description: SANGER: Inhibition of human COLO-800 cell growth in a cell viability assay.

[24] = system: ONS-76; format: functional, cell-based, Homo sapiens; settings: Homo sapiens, ONS-76;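 further: growth inhibition of human ONS-76 cells, read out with a cell viability assay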
[25] = system: NCI-H1155; format: functional, cell-based; settings: Homo sapiens;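 further: cell growth inhibition measured by a viability assay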
Description: SANGER: Inhibition of human NCI-H1155 cell growth in a cell viability assay.

[26] = system: HDLM-2; format: functional, cell-based; settings: Homo sapiens;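 further: cell viability assay measuring suppression of HDLM-2 proliferation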
Description: SANGER: Inhibition of human HDLM-2 cell growth in a cell viability assay.

[27] = system: ES3; format: functional, cell-based, Homo sapiens; settings: Homo sapiens, ES3;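 further: growth inhibition of ES3 cells, read out with a cell viability assay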

Row | Structure (SMILES) | IC50 [1] [µM] | IC50 [2] [µM] | IC50 [3] [µM] | IC50 [4] [µM] | IC50 [6] [µM] | IC50 [7] [µM] | IC50 [8] [µM] | IC50 [9] [µM] | IC50 [10] [µM] | IC50 [11] [µM] | IC50 [12] [µM] | IC50 [13] [µM] | IC50 [14] [µM] | IC50 [15] [µM] | IC50 [16] [µM] | IC50 [17] [µM] | IC50 [18] [µM] | IC50 [19] [µM] | IC50 [20] [µM] | IC50 [21] [µM] | also measured
1 | C=C1C(=O)O[C@@H]2C3O[C@]3(C)CC/C=C(\C)CC[C@@H]12 (some centres not stated) | > 5 | 4.65 | > 5 | > 5 | > 5 | > 5 | > 5 | > 5 | > 5 | > 5 | > 5 | > 5 | 3.18 | > 5 | > 5 | > 5 | > 5 | > 5 | > 5 | 0.465 | IC50 [5]: > 5 µM; IC50 [22]: > 5 µM; IC50 [23]: > 5 µM; IC50 [24]: > 5 µM; IC50 [25]: > 5 µM; IC50 [26]: > 5 µM; IC50 [27]: > 5 µM
2 | CC1=C2C[C@H]3[C@@H](CC=C4C[C@@H](O)CC[C@@]43C)[C@@H]2CC[C@]12O[C@@H]1C[C@H](C)CN[C@H]1[C@H]2C [CYCLOPAMINE] | > 16 | > 16 | > 16 | > 16 | > 16 | > 16 | > 16 | > 16 | > 16 | > 16 | > 16 | > 16 | > 16 | > 16 | > 16 | > 16 | > 16 | > 16 | > 16 | > 16 | IC50 [5]: > 16 µM; IC50 [22]: > 16 µM; IC50 [23]: > 16 µM; IC50 [24]: > 16 µM; IC50 [25]: > 16 µM; IC50 [26]: > 16 µM; IC50 [27]: > 16 µM
3 | CS(=O)(=O)CCNCc1ccc(-c2ccc3ncnc(Nc4ccc(OCc5cccc(F)c5)c(Cl)c4)c3c2)o1 [LAPATINIB] | > 2 | > 2 | > 2 | > 2 | > 2 | > 2 | 0.094 | > 2 | > 2 | > 2 | > 2 | > 2 | > 2 | > 2 | > 2 | > 2 | > 2 | 0.491 | 0.0254 | > 2 | IC50 [22]: > 2 µM; IC50 [23]: > 2 µM; IC50 [24]: > 2 µM; IC50 [25]: > 2 µM; IC50 [26]: > 2 µM; IC50 [27]: > 2 µM
4 | CCc1nc(N)nc(N)c1-c1ccc(Cl)cc1 [PYRIMETHAMINE] | 9.11 | > 20 | > 20 | > 20 | 9.39 | > 20 | 4.98 | 9.92 | 7.56 | 1.4 | 5.43 | > 20 | 2.67 | > 20 | > 20 | > 20 | > 20 | > 20 | > 20 | 3.6 | IC50 [5]: > 20 µM; IC50 [22]: 4.74 µM; IC50 [23]: > 20 µM; IC50 [24]: 9.86 µM; IC50 [25]: > 20 µM; IC50 [26]: > 20 µM; IC50 [27]: > 20 µM
5 | O=C(/C=C/c1ccccc1)NC(NC(=S)Nc1cccc2cccnc12)C(Cl)(Cl)Cl (configuration not stated) [SALUBRINAL] | > 16 | > 16 | > 16 | > 16 | > 16 | > 16 | > 16 | > 16 | > 16 | > 16 | > 16 | > 16 | 10.6 | > 16 | > 16 | > 16 | 6.79 | 11.3 | > 16 | 3.99 | IC50 [5]: > 16 µM; IC50 [22]: 9.32 µM; IC50 [23]: > 16 µM; IC50 [24]: > 16 µM; IC50 [25]: > 16 µM; IC50 [26]: > 16 µM; IC50 [27]: > 16 µM
6 | CN1CCN(CCOc2cc(OC3CCOCC3)c3c(Nc4c(Cl)ccc5c4OCO5)ncnc3c2)CC1 [SARACATINIB] | > 2 | 1.85 | > 2 | > 2 | > 2 | > 2 | > 2 | 1.44 | > 2 | > 2 | > 2 | > 2 | > 2 | > 2 | > 2 | > 2 | > 2 | 0.327 | 0.281 | > 2 | IC50 [5]: > 2 µM; IC50 [22]: > 2 µM; IC50 [23]: > 2 µM; IC50 [24]: > 2 µM; IC50 [25]: > 2 µM; IC50 [26]: > 2 µM; IC50 [27]: > 2 µM
7 | CO[C@H]1C[C@@H]2CC[C@@H](C)[C@@](O)(O2)C(=O)C(=O)N2CCCC[C@H]2C(=O)O[C@H]([C@H](C)C[C@@H]2CC[C@@H](O)[C@H](OC)C2)CC(=O)[C@H](C)/C=C(\C)[C@@H](O)[C@@H](OC)C(=O)[C@H](C)C[C@H](C)/C=C/C=C/C=C/1C [SIROLIMUS] | > 0.1 | > 0.1 | > 0.1 | > 0.1 | 0.00494 | > 0.1 | > 0.1 | > 0.1 | > 0.1 | > 0.1 | 0.0968 | 0.0337 | 0.0498 | > 0.1 | > 0.1 | > 0.1 | 0.0324 | > 0.1 | > 0.1 | 0.00628 | IC50 [5]: > 0.1 µM; IC50 [22]: > 0.1 µM; IC50 [23]: > 0.1 µM; IC50 [24]: > 0.1 µM; IC50 [25]: > 0.1 µM; IC50 [26]: > 0.1 µM; IC50 [27]: > 0.1 µM
8 | CNC(=O)c1cc(Oc2ccc(NC(=O)Nc3ccc(Cl)c(C(F)(F)F)c3)cc2)ccn1 [SORAFENIB] | > 4 | > 4 | > 4 | > 4 | > 4 | > 4 | > 4 | > 4 | 3.66 | > 4 | > 4 | > 4 | > 4 | > 4 | > 4 | > 4 | > 4 | > 4 | > 4 | > 4 | IC50 [5]: > 4 µM; IC50 [22]: > 4 µM; IC50 [23]: > 4 µM; IC50 [24]: > 4 µM; IC50 [25]: > 4 µM; IC50 [26]: > 4 µM; IC50 [27]: > 4 µM
9 | CCC(=O)N1CCN(c2ccc(-n3c(=O)ccc4cnc5ccc(-c6cnc7ccccc7c6)cc5c43)cc2C(F)(F)F)CC1 [TORIN1] | 0.141 | 0.147 | 0.0963 | > 1.2 | 0.0337 | > 1.2 | 0.0717 | 0.285 | 0.0261 | 0.18 | 0.0661 | 0.0345 | 0.0164 | 0.207 | > 1.2 | 0.464 | 0.0182 | 0.0255 | 0.0362 | 0.00634 | IC50 [5]: > 1.2 µM; IC50 [22]: 0.0766 µM; IC50 [23]: > 1.2 µM; IC50 [24]: 0.131 µM; IC50 [25]: 0.654 µM; IC50 [26]: > 1.2 µM; IC50 [27]: > 1.2 µM
